Reference: patent US12285501B2, “Compound targeting norepinephrine transporter” (priority 2019, dated 2025)
Blank lines part the entries; values can stand above or below the molecule they belong to.

What was measured:
NET [1] = target: T1, NET (Homo sapiens, UniProt P23975); assay: Competitive inhibition of 18F-AF78 uptake in SK-N-SH cells; format: cell-based; details: percentage of control AF78 uptake
T1 construct: SK-N-SH cells expressing NET; host or cells: SK-N-SH
Protocol: (§1) SK-N-SH cells expressing NET were cultivated according to the instructions from the supplier (Sigma-Aldrich Chemie GmbH, Munich, Germany). The cells were transferred to a 12 well plate and incubated in 1 mL EMEM while reaching 2×10^5 cells/well density the day for testing. The medium was removed, and the cells were washed with 1 mL EMEM. A solution of ^18F-AF78 (3.7 kBq) in EMEM (700 μL) was added to each well with or without inhibitors (NE, MHPG, cold AF78 each with a final concentration 100 nM, 1 μM, 10 μM and 100 μM, respectively; Desipramine 10 μM). The plate was incubated for 60 min at 37° C. The cells were washed with ice-cold PBS buffer (1 mL×2) in order to remove unbound tracer. NaOH solution (0.1 N, 500 μL) was added to each well followed by the collection of cell pellet and the measurement in γ-counter (FH412, Frieseke & Höpfner, Erlangen, Germany) using differential energy windows (±20%) for ^18F and ^131I.
To further confirm the tracer's binding affinity, ^18F-labeled AF78 was used in competitive inhibition assay, to which different concentrations of NE, MHPG, and cold reference 2 (AF78) were added. […] Results are expressed as percentage of control AF78 uptake. […] (IC50 of MHPG vs. AF78, p value<0.05). […]

NET [2] = target: T1, NET; assay: Competitive inhibition of 131I-MIBG uptake in SK-N-SH cells expressing NET; format: cell-based; details: for IC50: non-radioactive compounds, percent of control MIBG uptake
Protocol: as §1
[drawing 27] were synthesized. The compounds were tested in SK-N-SH cells expressing NET in order to evaluate their competitive binding affinity against ^131I-MIBG. […] Results are expressed as percent of control MIBG uptake. […] (IC50 of AF78 vs. MHPG p value<0.01)
NE and cold MIBG were used as references. As a result, cold reference 2 (AF78) could inhibit the cell uptake of ^131I-MIBG in a concentration-dependent manner. In contrast, cold reference 1 was not able to block the uptake of ^131I-MIBG even at the highest concentration tested. Inhibition was only 40% at 100 μM. […] The introduction of long alkyl chain at 3-position on the benzene ring seems not to be tolerated, whereas introduction at the 4-position seems to be well tolerated.

[3] = time frame of 50-60 min imaging; Raffel et al., J. Nucl. Med. 2017; cited from earlier work
NET [4] = target: T1, NET; assay: Tracer cell uptake in SK-N-SH cells with and without NET inhibitor desipramine (DMI); format: cell-based; details: desipramine 10 μM, 60 min at 37° C.
Protocol: as §1
After successful radiolabeling, ^18F-AF78 was also tested in SK-N-SH cells in order to check cell uptake. Antidepressant desipramine (DMI) was used as the inhibitor of NET. The addition of DMI blocks cell uptake of tracers specifically transported by NET.

NET [5] = assay: Kinetic study in monkeys' hearts (DMI blocking, DMI chase, tyramine chase); format: in vivo, monkey
Description: A kinetic study has been performed with ^18F-AF78 in monkeys' hearts. The results confirmed the specific uptake of ^18F-AF78 via NET and stable vesicular storage mechanism in the sympathetic nerve terminals. […] Furthermore, a continuous tyramine (TYR) chase was applied after tracer administration. Tyramine is known as agent causing a catecholamine release thus enhancing tracer washout. […] Decrease was statistically significant (p<0.005) compared to control group (FIG. 18, lower panel).

NET [6] = target: T2, NET (Rattus norvegicus, UniProt Q63380); assay: Ex vivo tissue counting study (heart/tissue distribution ratio) with and without NET blockade; format: in vivo; details: rats
T2 construct: tissue Japan SLC, Inc., Japan (animals); host or cells: heart (myocardium) of healthy male Wistar rats, in vivo
T2 sequence (Q63380 1-617): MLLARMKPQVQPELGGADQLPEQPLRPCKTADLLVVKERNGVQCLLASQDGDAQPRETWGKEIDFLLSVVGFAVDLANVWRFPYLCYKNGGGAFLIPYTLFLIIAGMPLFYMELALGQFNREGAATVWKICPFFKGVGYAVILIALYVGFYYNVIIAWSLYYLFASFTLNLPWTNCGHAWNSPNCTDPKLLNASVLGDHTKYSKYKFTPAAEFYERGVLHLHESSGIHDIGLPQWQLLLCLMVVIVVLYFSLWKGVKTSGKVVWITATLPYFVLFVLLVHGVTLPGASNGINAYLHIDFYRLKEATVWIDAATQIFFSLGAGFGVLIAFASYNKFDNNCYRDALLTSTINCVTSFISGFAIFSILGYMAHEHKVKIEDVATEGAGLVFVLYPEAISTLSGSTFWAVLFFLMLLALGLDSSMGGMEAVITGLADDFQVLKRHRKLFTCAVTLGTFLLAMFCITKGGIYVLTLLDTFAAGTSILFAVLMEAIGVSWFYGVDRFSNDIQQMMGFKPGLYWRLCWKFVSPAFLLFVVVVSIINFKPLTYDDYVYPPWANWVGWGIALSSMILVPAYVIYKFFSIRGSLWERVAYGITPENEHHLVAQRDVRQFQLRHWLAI
Protocol: (§2) Standard protocols and data analysis methods for non-invasive PET imaging of small animals have been established in the working group of the inventors (Rischpler C. et al., Eur J Nucl Med Mol Imaging. 2013; 40(7): 1077-83). Healthy male Wistar rats (Japan SLC, Inc., Japan) each weighing 200-250 g were used. The rats are anaesthetized with 2% isoflurane. 10-20 MBq of the tracer was administered via tail vein injection. Ten minutes after the tracer administration, the animals were immediately euthanized. Hearts, livers and blood were obtained for ex vivo analysis with autoradiography (Typhoon FLA 7000) and tissue counts with γ-counter (1480 WIZARD™ 3″). Following weight and decay correction of tissue counts, the heart to blood (H/B) and heart to liver (H/L) count ratio were calculated, respectively. For autoradiography, the rats were first injected via tail vein either with or without (control) NET blocker phenoxynezamine 50 mg/kg after anaesthesia. After 10 min, the tracer (10-20 MBq) was administered. The hearts were harvested 10 min later, frozen, and cut into 20 μm short axis slices using a cryostat (Cryotome FSE, Thermo Fisher Scientific). To obtain the distribution of the tracer, autoradiography plates (Fuji SR-type image plate, Fujifilm Corporation, Tokyo, Japan) were exposed to the short axis slices immediately for 18 h and thereafter imaged using a digital autoradiographic system (Typhoon FLA 7000).
The columns are the mean value of 2 rats. Data were determined 10 min post injection. Y-axis represents the heart/tissue distribution ratio. […] In comparison, according to Raffel, D. et al., J. Nucl. Med. 2017, 58 (Suppl 1): 96 MHPG and PHPG show tissue concentration ratios at a time frame of 50-60 min imaging as follows: MHPG with H/B 3.6 and H/L 2.3; PHPG with 5.4 and 1.1, respectively.

NET [7] = target: T2, NET; assay: Ex vivo autoradiography of left ventricular short axis slices; format: in vivo
Protocol: as §2, with “To obtain the distribution of the tracer, autoradiography plates (Fuji SR-type image plate, Fujifilm Corporation, Tokyo, Japan) were exposed to the short axis slices immediately for 18 h and thereafter imaged using a digital autoradiographic system (Typhoon FLA 7000).” left out

[8] = Biodistribution study (SUV) in monkey; format: in vivo
Protocol: A further biodistribution study with ^18F-AF78 in monkey has been conducted. […] The liver uptake is decreasing and is lower than cardiac uptake 35 min after tracer administration.

[9] = Static PET images of cardiac uptake in several species; format: in vivo; details: healthy rats, rabbits, pigs and monkeys
NET [10] = target: T2, NET; assay: Cardiac PET imaging in healthy rats with and without NET blockade; format: in vivo
Description: Rats were maintained anaesthetized during the whole experiment by 2% isoflurane. All scans were obtained using a dedicated small-animal PET system (microPET FOCUS 120, SIEMENS, Germany). The PET imaging protocol was designed to assess the systemic and myocardial tracer distribution of ^18F-AF78. Shortly before the injection of 10-20 MBq of ^18F-AF78 via the tail vein, a dynamic PET scan was initiated. In order to evaluate the cardiac uptake mechanism of the tracer, rats were pretreated with phenoxybenzamine (50 mg/kg intravenously, Sigma-Aldrich, Tokyo, Japan). Ten minutes after the pretreatment, 10-20 MBq of ^18F-AF78 was administered via the tail vein. A 10 min dynamic PET session was started shortly before the tracer injection. PET image was acquired in list-mode format. The data were sorted into 3-dimensional sonograms, which were then rebind with a Fourier algorithm to reconstruct dynamic images using a 2-dimensional ordered-subset expectation maximization (OSEM) algorithm. All images were corrected for ^18F decay, random, and dead time; correction for attenuation was not performed (Higuchi JNM 2013). The obtained PET images were analyzed with the public domain tool AMIDE imaging software (A Medical Imaging Data Examiner, version 1.01). […]

NET [11] = assay: Dynamic PET time-activity curves in Cynomolgus monkey with and without DMI pretreatment; format: in vivo
Protocol: For control, Cynomolgus monkey (male, 5.3 kg) was maintained anaesthetized during the imaging study using 3.3% seboflurane. Shortly before receiving an intravenous injection of the tracer (44 MBq), a 120 min dynamic PET session was started. In addition, to investigate the inhibition of cardiac neuronal uptake-1, DMI (1 mg/kg, iv.) was injected to Cynomolgus monkey (female, 5.6 kg) 10 min before the tracer (18.2 MBq) injection and PET assessment started. PET was conducted using a PCA-2000A positron scanner (Toshiba Medical Systems Corporation, Otawara, Japan). Sinograms were collected with the following pattern: 10 sec×12, 30 sec×6, 300 sec×23. The tissue uptake was determined as arbitrary unit (A.U.), from which a time-activity curves of different organs were generated.
A tissue bio-distribution consistent with that observed in rat could be observed with clear long term and stable cardiac uptake during the total 120 min scan whereas uptake in adjacent liver and lungs was low. Representative time activity curves derived from ^18F-AF78 dynamic images in control and sympathetic nerve blocked monkey were generated from the scanning data. […] In the control, activity in the liver reached a peak a little while after the tracer injection, then decreased slowly to blood level after 60 min.

[12] = 10 min post injection, control, mean of 2 rats
[13] = PhB 50 mg/kg 10 min before tracer, 10 min post injection

T1 sequence (P23975 whole entry): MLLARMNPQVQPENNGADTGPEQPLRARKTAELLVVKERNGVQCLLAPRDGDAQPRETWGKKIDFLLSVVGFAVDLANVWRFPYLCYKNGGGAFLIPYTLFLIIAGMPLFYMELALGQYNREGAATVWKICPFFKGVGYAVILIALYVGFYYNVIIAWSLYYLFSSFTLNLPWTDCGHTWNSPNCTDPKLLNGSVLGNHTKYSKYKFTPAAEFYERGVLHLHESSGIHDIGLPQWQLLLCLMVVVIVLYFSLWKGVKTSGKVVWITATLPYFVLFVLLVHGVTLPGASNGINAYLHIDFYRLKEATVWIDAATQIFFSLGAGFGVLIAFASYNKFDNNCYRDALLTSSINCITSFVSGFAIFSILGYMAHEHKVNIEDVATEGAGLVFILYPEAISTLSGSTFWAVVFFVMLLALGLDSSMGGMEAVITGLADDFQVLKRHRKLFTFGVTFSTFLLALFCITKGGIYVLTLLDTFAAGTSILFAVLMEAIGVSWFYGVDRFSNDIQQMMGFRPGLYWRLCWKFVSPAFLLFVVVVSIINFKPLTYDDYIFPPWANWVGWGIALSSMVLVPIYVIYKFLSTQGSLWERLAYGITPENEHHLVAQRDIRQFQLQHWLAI

Molecule: ^18F-4-fluoro-3-hydroxyphenethylguanidine [MHPG]
IC50 (NET [1]): 0.85 ± 0.63 µM
IC50 (NET [2]): 6.8 ± 0.73 µM
H/B tissue concentration ratio [3]: 3.6
H/L tissue concentration ratio [3]: 2.3

Molecule: N=C(N)NCc1cccc([131I])c1 [^131I-MIBG, ^123/131I-meta-iodobenzylguanidine, reference compound]
Tracer uptake inhibited by the addition of DMI (NET [4]): 87%

Molecule: NC(N)=NCCc1ccc(OCCC[18F])c(F)c1 [^18F-AF78]
Cardiac tracer uptake with DMI chase vs control (NET [5]; DMI injected 10 min after tracer): no difference can be seen compared to control group
Cardiac tracer uptake with DMI blocking vs control (NET [5]; DMI injected 10 min before tracer): specifically blocked the tracer uptake with significant difference
Cardiac tracer uptake with tyramine chase vs control (NET [5]; continuous tyramine chase after tracer): decreased considerable
Heart-to-Blood (H/B) ratio (NET [6]; [12]): 12.54
Heart-to-Liver (H/L) ratio (NET [6]; [12]): 6.14
Decline in the H/B ratio by PhB (NET [6]; PhB 50 mg/kg): approximately 6 fold
Decline in the H/L ratio by PhB (NET [6]; PhB 50 mg/kg): ~5 fold
Heart-to-Blood (H/B) ratio after NET blockade (NET [6]; [13]): 2.41
Heart-to-Liver (H/L) ratio after NET blockade (NET [6]; [13]): 1.30
Tracer distribution in myocardium (autoradiography) (NET [7]; rat LVSA slices, control): homogeneous tracer uptake throughout the left ventricular walls
Tracer distribution after PhB pretreatment (autoradiography) (NET [7]; rat, PhB 50 mg/kg i.v. 10 min before tracer): could be inhibited by a pretreatment with phenoxybenzamine
Biodistribution (SUV) result [8]: stable cardiac uptake along with fast blood pool washout and relative fast liver uptake washout
Time after tracer administration at which liver uptake is lower than cardiac uptake [8]: 35 min
Cardiac uptake in static PET images across species [9]: works in all of these species
Myocardial tracer uptake after NET blockade, static PET images (NET [10]; PhB 50 mg/kg iv 10 min before tracer): significantly decreased the myocardial tracer uptake
Myocardial tracer uptake, static PET images (NET [10]; no pretreatment): homogeneous and clear tracer uptake throughout the left ventricular wall
Time after which liver activity decreased to blood level (NET [11]; control monkey): 60 min
Cardiac uptake over scan time (NET [11]; control monkey, 120 min dynamic PET): maintained activity throughout the entire 120 min scan time
Liver uptake after DMI pretreatment (NET [11]; monkey, DMI 1 mg/kg iv): not affected by pretreatment with DMI
Heart uptake after DMI pretreatment (NET [11]; monkey, DMI 1 mg/kg iv 10 min before tracer): markedly reduced the heart uptake level
Tracer uptake inhibited by the addition of DMI (NET [4]): 94%

inhibition at 100 µM (NET [2]; at 100 μM (highest concentration tested)): 40%
Molecule: N=C(N)NCCc1ccc(F)c(OCCCF)c1 [cold reference 1]

Molecule: N=C(N)NCCc1ccc(OCCCF)c(F)c1 [AF78]
IC50 (NET [1]): 2.68 ± 0.83 µM
IC50 (NET [2]): 2.57 ± 1.37 µM

Molecule: N=C(N)NCCc1ccc(O)c([18F])c1 [PHPG, ^18F-3-fluoro-4-hydroxyphenethylguanidine]
H/B tissue concentration ratio [3]: 5.4
H/L tissue concentration ratio [3]: 1.1
